Results published in publication doi:10.1101/2024.11.19.623840, “Targeting GOF p53 and c-MYC through LZK Inhibition or Degradation Suppresses Head and Neck Tumor Growth” (bioRxiv, 2024).

How the values were obtained:
[1] = molecular target: T1, LZK (leucine zipper-bearing kinase) (Homo sapiens, UniProt O43283); test: LZK degradation Western blot in CAL33 cells with dox-induced LZK; type: cell-based
T1 construct: gene MAP3K13
T1 sequence (O43283 1-966): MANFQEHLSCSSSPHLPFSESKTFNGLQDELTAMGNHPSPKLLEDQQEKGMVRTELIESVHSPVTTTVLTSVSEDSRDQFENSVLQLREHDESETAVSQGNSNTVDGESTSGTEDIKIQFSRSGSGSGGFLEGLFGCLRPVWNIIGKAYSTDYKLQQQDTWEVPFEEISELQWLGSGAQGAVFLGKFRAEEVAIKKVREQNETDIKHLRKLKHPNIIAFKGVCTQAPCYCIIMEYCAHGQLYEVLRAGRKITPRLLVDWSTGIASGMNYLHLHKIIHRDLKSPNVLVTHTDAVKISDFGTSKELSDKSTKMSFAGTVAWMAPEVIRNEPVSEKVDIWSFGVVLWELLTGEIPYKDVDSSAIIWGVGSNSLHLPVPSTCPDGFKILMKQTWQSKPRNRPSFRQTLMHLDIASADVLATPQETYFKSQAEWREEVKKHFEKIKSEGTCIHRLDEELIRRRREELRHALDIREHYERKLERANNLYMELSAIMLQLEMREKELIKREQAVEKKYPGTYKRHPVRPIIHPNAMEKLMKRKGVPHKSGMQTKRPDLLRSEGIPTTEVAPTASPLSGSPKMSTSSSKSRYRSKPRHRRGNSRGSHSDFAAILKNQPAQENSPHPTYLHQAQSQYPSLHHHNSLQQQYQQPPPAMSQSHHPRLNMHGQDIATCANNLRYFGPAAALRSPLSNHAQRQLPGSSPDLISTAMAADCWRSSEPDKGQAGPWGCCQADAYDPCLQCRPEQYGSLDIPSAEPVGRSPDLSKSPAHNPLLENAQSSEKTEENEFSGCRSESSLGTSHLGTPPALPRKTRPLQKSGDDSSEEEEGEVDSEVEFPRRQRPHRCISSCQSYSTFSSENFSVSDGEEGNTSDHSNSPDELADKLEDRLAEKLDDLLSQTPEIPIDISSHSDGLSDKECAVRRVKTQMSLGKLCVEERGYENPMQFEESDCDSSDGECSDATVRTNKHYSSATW

[2] = molecular target: T1, LZK (leucine zipper-bearing kinase); test: KdELECT KINOMEscan competition binding assay

| Compound | LZK degradation Western blot in CAL33 cells with dox-induced LZK [1] | Kd [2] |
| --- | --- | --- |
| N#Cc1ccnc(Nc2cc(C3CCN(C(=O)CCCCCCC(=O)NCCCCNC(=O)CNc4cccc5c4C(=O)N(C4CCC(=O)NC4=O)C5=O)CC3)cc(N3CCC(F)(F)C3)n2)c1 (stereo not shown) [PROTAC-21B] | PROTAC-21B, PROTAC-21C and PROTAC-21D (Figure 5B) also promoted degradation of LZK at higher concentrations |  |
| Cc1ncsc1-c1ccc([C@H](C)NC(=O)[C@@H]2C[C@@H](O)CN2C(=O)[C@@H](NC(=O)CCCCCCC(=O)N2CCC(c3cc(Nc4cc(C#N)ccn4)nc(N4CCC(F)(F)C4)c3)CC2)C(C)(C)C)cc1 [PROTAC-21A] |  | 35 nM |
| N#Cc1ccnc(Nc2cc(C3CCN(C(=O)c4cncc(C(=O)NCCCCNC(=O)CNc5cccc6c5C(=O)N(C5CCC(=O)NC5=O)C6=O)c4)CC3)cc(N3CCC(F)(F)C3)n2)c1 (stereo not shown) [PROTAC-21D] | PROTAC-21B, PROTAC-21C and PROTAC-21D (Figure 5B) also promoted degradation of LZK at higher concentrations |  |
| Cc1ncsc1-c1ccc([C@H](C)NC(=O)[C@@H]2C[C@@H](O)CN2C(=O)[C@@H](NC(=O)c2cncc(C(=O)N3CCC(c4cc(Nc5cc(C#N)ccn5)nc(N5CCC(F)(F)C5)c4)CC3)c2)C(C)(C)C)cc1 [PROTAC-21C] | PROTAC-21B, PROTAC-21C and PROTAC-21D (Figure 5B) also promoted degradation of LZK at higher concentrations |  |
